target: T1, recombinant human CL receptor/RAMP1 (Homo sapiens, UniProt O60894+Q16602); experiment: RECOMBINANT RECEPTOR BINDING ASSAY (125I-hCGRP); conditions: 125I-hCGRP binding to membranes of HEK 293 cells expressing recombinant human CL receptor/RAMP1; stated as 'generally ... less than about'
T1 construct: expressed in transfected cells; membranes
Description: RECOMBINANT RECEPTOR: Human CL receptor (Genbank accession number L76380) was subcloned into the expression vector pIREShyg2 (BD Biosciences Clontech) as a 5′NheI and 3′ PmeI fragment. Human RAMP1 (Genbank accession number AJ001014) was subcloned into the expression vector pIRESpuro2 (BD Biosciences Clontech) as a 5′NheI and 3′NotI fragment. HEK 293 cells (human embryonic kidney cells; ATCC #CRL-1573) were cultured in DMEM with 4.5 g/L glucose, 1 mM sodium pyruvate and 2 mM glutamine supplemented with 10% fetal bovine serum (FBS), 100 units/mL penicillin and 100 μg/mL streptomycin, and maintained at 37° C. and 95% humidity. Cells were subcultured by treatment with 0.25% trypsin with 0.1% EDTA in HBSS. Stable cell line generation was accomplished by co-transfecting 10 μg of DNA with 30 μg Lipofectamine 2000 (Invitrogen) in 75 cm^2 flasks. CL receptor and RAMP1 expression constructs were co-transfected in equal amounts. Twenty-four hours after transfection the cells were diluted and selective medium (growth medium+300 μg/mL hygromycin and 1 μg/mL puromycin) was added the following day. A clonal cell line was generated by single cell deposition utilizing a FACS Vantage SE (Becton Dickinson). Growth medium was adjusted to 150 μg/mL hygromycin and 0.5 μg/mL puromycin for cell propagation.
RECOMBINANT RECEPTOR BINDING ASSAY: Cells expressing recombinant human CL receptor/RAMP1 were washed with PBS and harvested in harvest buffer containing 50 mM HEPES, 1 mM EDTA and Complete protease inhibitors (Roche). The cell suspension was disrupted with a laboratory homogenizer and centrifuged at 48,000 g to isolate membranes. The pellets were resuspended in harvest buffer plus 250 mM sucrose and stored at −70° C. For binding assays, 20 μg of membranes were incubated in 1 ml binding buffer (10 mM HEPES, pH 7.4, 5 mM MgCl2, and 0.2% BSA) for 3 hours at room temperature containing […] ^125I-hCGRP (GE Healthcare) and antagonist. The assay was terminated by filtration through 96-well GFB glass fiber filter plates (PerkinElmer) that had been blocked with 0.05% polyethyleneimine. The filters were washed 3 times with ice-cold assay buffer (10 mM HEPES, pH 7.4 and 5 mM MgCl2). Scintillation fluid was added and the plates were counted on a Topcount (Packard). Non-specific binding was determined and the data analysis was carried out with the apparent dissociation constant (Ki) determined by using a non-linear least squares fitting the bound CPM data to the equation below:
[formula] […]

T1 sequence (Q16602 23-461): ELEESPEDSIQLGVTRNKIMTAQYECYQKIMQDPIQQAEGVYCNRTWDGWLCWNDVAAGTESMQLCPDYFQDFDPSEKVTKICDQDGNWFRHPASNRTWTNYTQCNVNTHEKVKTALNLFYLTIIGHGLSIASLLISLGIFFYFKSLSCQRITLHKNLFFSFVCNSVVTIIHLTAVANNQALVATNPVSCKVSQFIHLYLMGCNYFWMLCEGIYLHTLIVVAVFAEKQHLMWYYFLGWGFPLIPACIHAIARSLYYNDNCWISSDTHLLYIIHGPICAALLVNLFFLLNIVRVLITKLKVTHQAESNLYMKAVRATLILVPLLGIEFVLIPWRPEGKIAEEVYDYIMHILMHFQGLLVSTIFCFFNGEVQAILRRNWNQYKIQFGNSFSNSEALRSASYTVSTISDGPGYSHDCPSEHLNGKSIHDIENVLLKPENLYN
T1 sequence (O60894 27-148): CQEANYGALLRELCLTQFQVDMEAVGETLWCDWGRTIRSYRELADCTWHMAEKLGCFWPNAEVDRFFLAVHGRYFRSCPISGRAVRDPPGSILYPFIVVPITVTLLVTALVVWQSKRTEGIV

Ki | Compound
< 50 µM | CN1C[C@@](C)(c2cc(F)cc(F)c2)N(CCOc2ccc3c(c2)C[C@@]2(C3)C(=O)Nc3ncccc32)C(=O)C12CCCC2 [Example 15]
< 50 µM | CN1C[C@@](C)(c2cc(F)cc(F)c2)N(CCCc2ccc3c(c2)C[C@@]2(C3)C(=O)Nc3ncccc32)C(=O)C12CCCC2 [Example 9]
< 50 µM | C[C@@]1(c2cc(F)cc(F)c2)CNC2(CCCC2)C(=O)N1CCOc1ccc2c(c1)C[C@@]1(C2)C(=O)Nc2ncccc21 [Example 13]
< 50 µM | CN1C[C@@](C)(c2cc(F)cc(F)c2)N(C/C=C/c2ccc3c(c2)C[C@@]2(C3)C(=O)Nc3ncccc32)C(=O)C12CCCC2 [Example 8]
